According to patent publication US4365989A, “2-Thiocyanomethylthio-4,4-dialkyl-5-substituted-thiazoline fungicides” (Chevron Research Company, priority 1982, dated 1982):

Key:
[1] = system: Fusarium Moniliforme; assay: Mycelial inhibition, Fusarium; assay type: cell-based; settings: Fusarium verticillioides, 24 hours, relative to standard DIFOLATAN
Procedure: (§1) A number of the compounds of the present invention were evaluated for in-vitro fungicidal effectiveness by means of a mycelial inhibition test. This test is designed to measure the fungitoxic activity of fungicidal chemicals in terms of their degree of inhibition of mycelium growth. Each compound to be tested was dissolved in acetone to 500 ppm concentration. Paper strips were infused with the particular mycelium growth by covering the paper with a potato dextrose broth culture of mycelial suspension. The papers were then placed on potato dextrose agar plates and sprayed by means of a microsprayer with the fungicidal solution. The treated paper strips were incubated at 25° C. and the data is taken after 24 hours. Fungicidal activities are measured by a zone of inhibited mycelial growth from the center of the paper strip. The effectiveness of the compounds tested for fungicidal activity is reported in Table IIa for those compounds which were effective in inhibiting mycelial growth. The activity is reported in terms of [formula]

[2] = system: Crabgrass (Digitaria sanguinalis); assay: Pre-emergent herbicidal test, Crabgrass; assay type: in vivo; settings: 504 h, pre-emergence, 33 micrograms/cm^2, 3 weeks
Procedure: (§2) An acetone solution of the test compound was prepared by mixing 750 mg of the compound, 220 mg of a nonionic surfactant and 25 ml of acetone. This solution was added to approximately 125 ml of water containing 156 mg of surfactant.
(§3) Seeds of the test vegetation were planted in a pot of […] and the test solution was sprayed uniformly onto the soil surface at a dose of 33 micrograms/cm^2. The pot was watered and placed in a greenhouse. […] At the end of this period, the herbicidal effectiveness of the compound was rated based on the physiological observations. A 0-to-100 scale was used, 0 representing no phytotoxicity, 100 representing complete kill.

[3] = system: Soybean; assay: Pre-emergent herbicidal test, Soybean; assay type: in vivo; settings: Glycine max, 504 h; pre-emergence; 33 micrograms/cm^2; 3 weeks; read-out: Herbicidal Activity Pre-Emergence % Control Soybean
Procedure: as §2, §3

[4] = system: Mustard (Brassica arvensis); assay: Pre-emergent herbicidal test, Mustard; assay type: in vivo; settings: 504 h, pre-emergence, 33 micrograms/cm^2, 3 weeks
Procedure: as §2, §3

[5] = system: Pythium Ultimum; assay: Mycelial inhibition, Pythium; assay type: cell-based; settings: Globisporangium ultimum, 24 hours, relative to standard DIFOLATAN
Procedure: as §1

[6] = system: Pigweed (Amaranthus retraflexus); assay: Post-emergent herbicidal test, Pigweed; assay type: in vivo; settings: 504 h, post-emergence, 33 micrograms/cm^2, 3 weeks
[7] = system: Spirulina maxima; assay: Algae control, Spirulina; assay type: cell-based; settings: Limnospira maxima, 7 to 10 days, read-out: Algicidal Activity % Control Spirulina
Procedure: Representative compounds of the invention were tested as aquatic herbicides and algicides by the following method. The weed test species were Lemna minor, Elodea canadensis and the algae used was Spirulina maxima.
An acetone solution of the test compound and a small amount of an alkylarylpolyoxyethylene glycol-containing surfactant was prepared. This solution was mixed with a nutrient solution in quantity sufficient to give a concentration of 2 ppm. Eight oz. plastic cups were filled with 150 ml of this solution. A sample of the test, Lemna and Elodea, was added together to each cup. Forty ml of Spirulina culture with the 2 ppm treatment was placed in 11/2 oz plastic cups (#4 glass vials used after June 9, 1980). The containers were then placed in an illuminated environment maintained at a temperature of about 20° C. for incubation. The containers were observed periodically for growth (as compared to an untreated check). The effectiveness of the test compound was determined based on a final observation of growth after 7 to 10 days. The results of the test on a 0-to-100 basis--0 indicating no effectiveness and 100 indicating complete effectiveness--are reported in Table IV.

[8] = system: Mustard (Brassica arvensis); assay: Post-emergent herbicidal test, Mustard; assay type: in vivo; settings: 504 h, post-emergence, 33 micrograms/cm^2, 3 weeks
[9] = system: Aspergillus Niger; assay: Mycelial inhibition, Aspergillus; assay type: cell-based; settings: 24 hours, relative to standard DIFOLATAN, read-out: Mycelial inhibition, % Standard, Asper.
Procedure: as §1

[10] = system: Watergrass (Ethinochloa crusgalli); assay: Pre-emergent herbicidal test, Watergrass; assay type: in vivo; settings: 504 h; pre-emergence; 33 micrograms/cm^2; 3 weeks
Procedure: as §2, §3

[11] = system: Botrytis Cineria; assay: Mycelial inhibition, Botrytis; assay type: cell-based; settings: 24 hours, relative to standard DIFOLATAN
Procedure: as §1

[12] = system: Septoria apii; assay type: in vivo; settings: 250 ppm; celery (Utah) plants
[13] = system: Piricularia oryzae; assay type: in vivo; settings: 625 ppm; rice seedlings Calrose M-9

| SMILES | inhibition at 500 ppm [1] [%] | pest or weed control at 33 µg/cm2 [2] [%] | plant injury at 33 µg/cm2 [3] [%] | pest or weed control at 33 µg/cm2 [4] [%] | inhibition at 500 ppm [5] [%] | pest or weed control at 33 µg/cm2 [6] [%] | activity at 2 ppm [7] [%] | pest or weed control at 33 µg/cm2 [8] [%] | inhibition at 500 ppm [9] [%] | pest or weed control at 33 µg/cm2 [10] [%] | inhibition at 500 ppm [11] [%] | % Control Cel. L. Bl. [12] [%] | % Control Rice Blast [13] [%] |
| --- | --- | --- | --- | --- | --- | --- | --- | --- | --- | --- | --- | --- | --- |
| C=C1SC(SCSC#N)=NC12CCCCC2 [Compound 8] | 0 | 0 | 0 | 0 | 0 | 50 | 70 | 25 | 77 | 0 | 26 | – | – |
| C=C1SC(SCSC#N)=NC1(C)C [Compound 7, 2-Thiocyanomethylthio-4,4-dimethyl-5-methylenethiazoline] | 32 | 0 | 45 | 0 | 55 | 35 | 90 | 50 | 32 | 0 | 82 | – | – |
| CC1(C)N=C(SCSC#N)SC1=CSc1ccc(Cl)cc1 [Compound 1, 2-thiocyanomethylthio-4,4-dimethyl-5-(4-chlorophenylthio)methylenethiazoline] | 0 | 0 | 0 | 0 | – | 0 | 0 | 0 | 0 | 0 | 0 | 70 | – |
| CC1(C)N=C(SCSC#N)SC1=C(Cl)Cl [Compound 2, 2-thiocyanomethylthio-4,4-dimethyl-5-dichloromethylenethiazoline] | 29 | 0 | 0 | 0 | – | 55 | 45 | 63 | 107 | 0 | 32 | 35 | – |
| CCC1(CC)N=C(SCSC#N)SC1=CBr [Compound 5, 2-thiocyanomethylthio-4,4-diethyl-5-bromo-methylenethiazoline] | 0 | 0 | 0 | 0 | 0 | 35 | 40 | 35 | 50 | 0 | 0 | 96 | 90 |
| C=C1SC(SCSC#N)=NC1(CC)CC [Compound 6, 2-thiocyanomethylthio-4,4-diethyl-5-methylenethiazoline] | 31 | 0 | 30 | 58 | 31 | 35 | 75 | 35 | 77 | 0 | 30 | 0 | – |
